Assay results: ChEMBL document CHEMBL4808223, “Design, synthesis and biological activity of bis-sulfonyl-BODIPY probes for tumor cell imaging” (Bioorg Med Chem Lett, 2021); call rule not given here
pIC50: −log10 of the molar value.

How the values were obtained:
[1] = system: HeLa; experiment: Cytotoxicity against human HeLa cells by MTT assay; type: functional, cell-based
[2] = system: HCT-116; experiment: Cytotoxicity against human HCT-116 cells by MTT assay; type: functional, cell-based
[3] = system: L02; experiment: Cytotoxicity against human L02 cells by MTT assay; type: cell-based
[4] = Drug uptake in human HeLa cells assessed as increase in fluorescence intensity at 10 uM incubated for 24 hrs by DAPI staining based confocal microscopic analysis; type: ADME, cell-based
[5] = system: HeLa; experiment: Induction of apoptosis in human HeLa cells assessed as early apoptotic cells measured after 12 hrs by Annexin-V-FITC/propidium iodide staining based flow cytometry; type: functional
[6] = Drug uptake in tumor of mouse xenografted with human HeLa cells administered intraperitoneally and measured after 30 mins by fluorescence imaging analysis; type: ADME, tissue-based, Neoplasm; settings: in vivo, ip, 0.5 h
[7] = system: HeLa; experiment: Induction of apoptosis in human HeLa cells assessed as necrotic cells measured after 12 hrs by Annexin-V-FITC/propidium iodide staining based flow cytometry; type: functional
[8] = system: HeLa; experiment: Induction of apoptosis in human HeLa cells assessed as viable cells measured after 12 hrs by Annexin-V-FITC/propidium iodide staining based flow cytometry; type: functional
[9] = system: HeLa; experiment: Induction of apoptosis in human HeLa cells assessed as late apoptotic cells measured after 12 hrs by Annexin-V-FITC/propidium iodide staining based flow cytometry; type: functional

Row | Drug uptake [4] | Drug uptake [6] | SMILES | pIC50 [1] | pIC50 [2] | pIC50 [3] | Activity [5] | Activity [7] | Activity [8] | Activity [9]
1 | Active |  | CCC1=C(C)C2=C(c3ccccc3)c3ccc(NCCNCC(=O)c4ccc(OS(C)(=O)=O)cc4OS(C)(=O)=O)n3[B-](F)(F)[N+]2=C1C | 4.02 | 3.99 | 4.38 |  |  |  | 
2 | Active |  | CCC1=C(C)C2=C(c3ccccc3)c3ccc(NCCN)n3[B-](F)(F)[N+]2=C1C |  |  |  |  |  |  | 
3 | Active | Active | CCC1=C(C)C2=C(c3ccccc3)c3ccc(NCCNCC(=O)c4ccc(OS(=O)(=O)c5ccccc5)cc4OS(=O)(=O)c4ccccc4)n3[B-](F)(F)[N+]2=C1C | 4.05 | 4.03 | 4.27 | 0.24% | 0.91% | 96.38% | 2.46%
